Assay results: patent US9416129B2, “Tricyclic substituted thiadiazine dioxide compounds as BACE inhibitors, compositions and their use” (Merck Sharp & Dohme Corp., priority 2012, dated 2016)

Assays:
human P-glycoprotein = human P-glycoprotein (Homo sapiens (Human), UniProt P08183); experiment: Pgp Mdr1 efflux ratio; type: in vitro ADME; details: for Pgp Mdr1 ER: efflux ratio, human P-glycoprotein
[1] = molecular target: soluble human BACE1 catalytic domain (Homo sapiens (Human), UniProt P56817); experiment: BACE1 HTRF FRET assay; type: biochemical; details: for Ki: Ki calculated from IC50 using the Cheng-Prusoff equation
Text: Na^+-Acetate pH 5.0; 1% Brij-35; Glycerol; Dimethyl Sulfoxide (DMSO); Recombinant human soluble BACE1 catalytic domain (>95% pure); APP Swedish mutant peptide substrate (QSY7-APP^swe-Eu): QSY7-[…]-Europium-amide.
A homogeneous time-resolved FRET assay can be used to determine IC50 values for inhibitors of the soluble human BACE1 catalytic domain. This assay monitors the increase of 620 nm fluorescence that resulted from BACE1 cleavage of an APPswedish APP^swe mutant peptide FRET substrate (QSY7-[…]-Europium-amide). This substrate contains an N-terminal QSY7 moiety that serves as a quencher of the C-terminal Europium fluorophore (620 nm Em). In the absence of enzyme activity, 620 nm fluorescence is low in the assay and increased linearly over 3 hours in the presence of uninhibited BACE1 enzyme Inhibition of BACE1 cleavage of the QSY7-APP^swe-Eu substrate by inhibitors is manifested as a suppression of 620 nm fluorescence.
Varying concentrations of inhibitors at 3× the final desired concentration in a volume of 10 ul are preincubated with purified human BACE1 catalytic domain (3 nM in 10 μl) for 30 minutes at 30° C. in reaction buffer containing 20 mM Na-Acetate pH 5.0, 10% glycerol, 0.1% Brij-35 and 7.5% DSMO. Reactions are initiated by addition of 10 μl of 600 nM QSY7-APP^swe-Eu substrate (200 nM final) to give a final reaction volume of […] in a 384 well Nunc HTRF plate. The reactions are incubated at 30° C. for 1.5 hours. The 620 nm fluorescence is then read on a Rubystar HTRF plate reader (BMG Labtechnologies) using a 50 millisecond delay followed by a 400 millisecond acquisition time window. Inhibitor IC50 values are derived from non-linear regression analysis of concentration response curves.

human autoBACE-2 = human autoBACE-2 (Homo sapiens (Human), UniProt Q9Y5Z0); experiment: BACE-2 assay (BACE-HTRF, time-resolved endpoint proteolysis); type: biochemical; details: Ki calculated from IC50 using the Cheng-Prusoff equation; read-out: BACE2 Ki
Protocol: Inhibitor IC50s at purified human autoBACE-2 are determined in a time-resolved endpoint proteolysis assay that measures hydrolysis of the QSY7-[…]-Eu-amide FRET peptide substrate (BACE-HTRF assay). […] DMSO is present at 5% final concentration in the assay. Following laser excitation of sample wells at 320 nm, the fluorescence signal at 620 nm is collected for 400 ms following a 50 μs delay on a RUBYstar HTRF plate reader (BMG Labtechnologies). Raw RFU data is normalized to maximum (1.0 nM BACE/DMSO) and minimum (no enzyme/DMSO) RFU values. […] The Ki values are calculated from the IC50 using the Cheng-Prusoff equation.

Cathepsin-D = Cathepsin-D (Homo sapiens (Human), UniProt P07339); experiment: Cathepsin-D inhibition (selectivity); type: biochemical
Chain of Cathepsin-D (P07339 65-412, species assumed): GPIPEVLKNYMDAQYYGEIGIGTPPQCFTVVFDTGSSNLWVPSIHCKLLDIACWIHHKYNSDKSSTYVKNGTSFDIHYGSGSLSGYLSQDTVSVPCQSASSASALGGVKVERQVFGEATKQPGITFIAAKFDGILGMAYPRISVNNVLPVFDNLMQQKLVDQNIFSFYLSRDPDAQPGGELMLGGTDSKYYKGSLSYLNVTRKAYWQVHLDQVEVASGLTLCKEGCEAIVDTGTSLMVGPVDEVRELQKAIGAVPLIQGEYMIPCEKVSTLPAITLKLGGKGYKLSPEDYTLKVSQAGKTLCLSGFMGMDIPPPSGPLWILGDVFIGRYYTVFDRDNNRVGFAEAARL

Chain of human autoBACE-2 (Q9Y5Z0 63-473 limits assumed): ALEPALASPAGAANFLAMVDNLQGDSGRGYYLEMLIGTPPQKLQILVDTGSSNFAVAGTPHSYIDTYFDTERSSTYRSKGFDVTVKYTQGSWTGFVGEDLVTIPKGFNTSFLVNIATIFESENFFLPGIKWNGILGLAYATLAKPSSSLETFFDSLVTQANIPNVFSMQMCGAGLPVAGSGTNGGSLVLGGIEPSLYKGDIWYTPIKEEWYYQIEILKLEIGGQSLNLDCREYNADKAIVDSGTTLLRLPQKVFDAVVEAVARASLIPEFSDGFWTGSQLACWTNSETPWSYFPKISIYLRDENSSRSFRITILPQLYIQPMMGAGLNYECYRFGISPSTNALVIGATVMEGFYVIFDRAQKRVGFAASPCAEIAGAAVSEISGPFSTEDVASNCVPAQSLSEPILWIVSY
Chain of human P-glycoprotein (P08183 whole entry, the tested form may be a part): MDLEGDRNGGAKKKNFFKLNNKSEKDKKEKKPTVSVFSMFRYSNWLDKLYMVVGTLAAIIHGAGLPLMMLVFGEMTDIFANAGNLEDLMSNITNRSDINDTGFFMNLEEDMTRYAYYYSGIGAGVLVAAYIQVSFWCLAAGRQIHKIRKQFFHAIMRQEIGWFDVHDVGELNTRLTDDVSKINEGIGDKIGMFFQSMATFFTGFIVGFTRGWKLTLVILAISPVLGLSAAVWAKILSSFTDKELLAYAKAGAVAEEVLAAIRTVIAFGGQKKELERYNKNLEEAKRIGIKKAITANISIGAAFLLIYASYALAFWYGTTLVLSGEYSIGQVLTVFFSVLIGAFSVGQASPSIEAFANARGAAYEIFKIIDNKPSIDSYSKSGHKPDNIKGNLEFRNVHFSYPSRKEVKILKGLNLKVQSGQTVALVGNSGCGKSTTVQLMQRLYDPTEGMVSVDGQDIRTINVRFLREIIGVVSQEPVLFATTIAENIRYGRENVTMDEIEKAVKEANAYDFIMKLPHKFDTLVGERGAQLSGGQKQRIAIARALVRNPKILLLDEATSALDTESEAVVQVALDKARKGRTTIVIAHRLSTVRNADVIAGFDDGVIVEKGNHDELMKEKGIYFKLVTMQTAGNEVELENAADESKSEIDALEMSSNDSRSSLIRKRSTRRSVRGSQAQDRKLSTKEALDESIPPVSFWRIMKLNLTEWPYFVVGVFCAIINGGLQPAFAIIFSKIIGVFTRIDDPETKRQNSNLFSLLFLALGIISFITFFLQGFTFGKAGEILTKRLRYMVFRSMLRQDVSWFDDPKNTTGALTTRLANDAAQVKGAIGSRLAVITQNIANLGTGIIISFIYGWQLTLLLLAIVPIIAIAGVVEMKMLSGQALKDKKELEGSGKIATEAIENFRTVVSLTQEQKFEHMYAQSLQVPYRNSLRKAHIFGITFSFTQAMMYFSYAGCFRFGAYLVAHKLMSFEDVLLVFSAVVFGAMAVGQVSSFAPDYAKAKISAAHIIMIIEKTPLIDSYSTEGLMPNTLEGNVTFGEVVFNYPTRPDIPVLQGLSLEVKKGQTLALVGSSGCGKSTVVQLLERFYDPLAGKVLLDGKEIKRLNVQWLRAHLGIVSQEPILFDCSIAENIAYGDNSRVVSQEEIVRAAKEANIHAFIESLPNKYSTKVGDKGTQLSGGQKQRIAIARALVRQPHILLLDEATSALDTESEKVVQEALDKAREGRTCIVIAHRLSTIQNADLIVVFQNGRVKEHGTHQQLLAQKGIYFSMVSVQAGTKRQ
Chain of soluble human BACE1 catalytic domain (P56817 75-416): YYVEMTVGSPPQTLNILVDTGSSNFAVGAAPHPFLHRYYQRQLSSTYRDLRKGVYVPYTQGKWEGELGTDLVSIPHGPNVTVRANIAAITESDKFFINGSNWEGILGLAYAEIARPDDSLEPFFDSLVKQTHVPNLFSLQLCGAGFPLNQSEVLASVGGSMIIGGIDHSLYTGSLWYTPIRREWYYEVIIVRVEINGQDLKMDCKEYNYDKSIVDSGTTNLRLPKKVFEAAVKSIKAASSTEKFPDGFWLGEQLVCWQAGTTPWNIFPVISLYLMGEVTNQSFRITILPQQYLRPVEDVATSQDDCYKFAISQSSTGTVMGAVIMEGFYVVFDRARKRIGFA

Compound	Pgp Mdr1 ER (human P-glycoprotein)	Ki [1] [nM]	Ki (human autoBACE-2) [nM]	Pgp susceptibility (in words) (human P-glycoprotein)	Ki (Cathepsin-D; read-out: Cath-D Ki) [nM]	Cathepsin-D selectivity (in words) (Cathepsin-D; selectivity for BACE over Cathepsin-D)	BACE potency (in words) [1]
CN1C(=N)N[C@](C)(c2sc(-c3cccc(-c4ncco4)c3)cc2Cl)CS1(=O)=O [Example 6]	0.49	4.7	1.4	–	–	–	–
CN1C(=N)N[C@](C)(c2sc(-c3cccc(-c4ncco4)c3)cc2F)CS1(=O)=O [Example 7]	1.7	8.7	0.73	–	–	–	–
CN1C(=N)N[C@](C)(c2sc(-c3cccc(-c4cnco4)c3)cc2Cl)CS1(=O)=O [Example 11]	1.3	1.7	2	–	–	–	–
CN1C(=N)N[C@](C)(c2sc(-c3cccc(-c4cnco4)c3)cc2F)CS1(=O)=O [Example 12]	1.8	3.3	3.7	–	–	–	–
CN1C(=N)N[C@](C)(c2sc(-c3cccc(-c4ccno4)c3)cc2F)CS1(=O)=O [Example 14]	1.6	6.9	3.5	–	–	–	–
CN1C(=N)N[C@](C)(c2sc(-c3cccc(-c4nnc(C5CC5)o4)c3)cc2Cl)CS1(=O)=O [Example 17]	1.0	203	2.2	–	–	–	–
CN1C(=N)N[C@](C)(c2sc(-c3cccc(-c4nnc(C5CC5)o4)c3)cc2F)CS1(=O)=O [Example 18]	0.53	177	4.2	–	–	–	–
CN1C(=N)N[C@](C)(c2sc(-c3cc(F)cc(-c4cnco4)c3)cc2Cl)CS1(=O)=O [Example 23]	0.90	11.4	4.8	–	–	–	–
CN1C(=N)N[C@](C)(c2sc(-c3cc(F)cc(-c4cnco4)c3)cc2F)CS1(=O)=O [Example 25]	1.1	12.5	4.8	–	–	–	–
Cc1noc(-c2cccc(-c3cc(F)c([C@]4(C)CS(=O)(=O)N(C)C(=N)N4)s3)c2)n1 [Example 38]	1.7	29.1	3.6	–	–	–	–
Cc1nc(-c2cccc(-c3cc(Cl)c([C@]4(C)CS(=O)(=O)N(C)C(=N)N4)s3)c2)no1 [Example 41]	0.34	13.4	0.35	–	–	–	–
Cc1nc(-c2cccc(-c3cc(F)c([C@]4(C)CS(=O)(=O)N(C)C(=N)N4)s3)c2)no1 [Example 42]	1.2	25.4	1.1	–	–	–	–
CN1C(=N)N[C@](C)(c2sc(-c3cccc(-c4ncon4)c3)cc2Cl)CS1(=O)=O [Example 46]	0.70	3.3	0.41	–	–	–	–
CN1C(=N)N[C@](C)(c2sc(-c3cccc(-c4ncon4)c3)cc2F)CS1(=O)=O [Example 47]	1.7	3.9	0.34	–	–	–	–
CN1C(=N)N[C@](C)(c2sc3c(-c4ccc(-n5cccn5)nc4)nccc3c2Cl)CS1(=O)=O [Example 80]	0.78	10	16	low Pgp susceptibility	6970	good Cathepsin-D selectivity	good BACE potency
CN1C(=N)N[C@](C)(c2sc3c(-c4ccc(-c5cnn(C)c5)cc4F)nccc3c2Cl)CS1(=O)=O [Example 112]	–	291	218	–	–	–	–
CN1C(=N)N[C@](C)(c2sc3c(-c4ccc(-c5cncs5)cc4F)nccc3c2Cl)CS1(=O)=O [Example 113]	–	105	252	–	–	–	–
CN1C(=N)N[C@](C)(c2sc3c(-c4ccc(-c5cn[nH]c5)cc4F)nccc3c2Cl)CS1(=O)=O [Example 114]	–	330	134	–	–	–	–
COc1cnn(-c2ccc(-c3nccc4c(Cl)c([C@]5(C)CS(=O)(=O)N(C)C(=N)N5)sc34)c(F)c2)c1 [Example 115]	–	17.7	267	–	–	–	–
CN1C(=N)N[C@](C)(c2sc3c(-c4ccc(-n5cccn5)cc4F)nccc3c2Cl)CS1(=O)=O [Example 116]	–	31.4	110	–	–	–	–
CCCc1cnn(-c2ccc(-c3nccc4c(Cl)c([C@]5(C)CS(=O)(=O)N(C)C(=N)N5)sc34)c(F)c2)c1 [Example 117]	–	259	35	–	–	–	–
CCc1cnn(-c2ccc(-c3nccc4c(Cl)c([C@]5(C)CS(=O)(=O)N(C)C(=N)N5)sc34)c(F)c2)c1 [Example 118]	–	229	702	–	–	–	–
Cc1cnn(-c2ccc(-c3nccc4c(Cl)c([C@]5(C)CS(=O)(=O)N(C)C(=N)N5)sc34)c(F)c2)c1 [Example 119]	–	189	417	–	–	–	–
COc1ccnc(N2CCN(c3nccc4c(Cl)c([C@]5(C)CS(=O)(=O)N(C)C(=N)N5)sc34)CC2)c1 [Example 121]	–	1860	1260	–	–	–	–
Cc1nsc(C2CCN(c3nccc4c(Cl)c([C@]5(C)CS(=O)(=O)N(C)C(=N)N5)sc34)CC2)n1 [Example 122]	–	885	408	–	–	–	–
